Source: patent US20120190669A1, “OXINDOLE COMPOUNDS” (CYLENE PHARMACEUTICALS, INC., priority 2008, published 2012)

target: recombinant PIM-1 (Homo sapiens, UniProt P11309); assay: PIM-1 kinase assay (radiometric, 15 uM ATP, DMSO 4%); format: biochemical; conditions: Table 1; % inhibition at the high dose (2 micromolar) in a single screening assay; 15 μM ATP
Procedure: The following procedure was used to assay the PIM-1 kinase activity of compounds of the invention. Other methods for assaying PIM-1 and other PIM kinases, as well as methods to assay for activity against the various kinases in FIG. 1, are known in the art.
(specific activity approx. 500 cpm/pmol), DMSO 4% and test inhibitor compound at the required concentration. The reaction was initiated by the addition of the Magnesium ATP mixture. After 40 min incubation at 23° C., the reactions were quenched by the addition of 100 ul 0.75% Phosphoric acid, and the labeled peptide collected by filtration through a phosphocellulose filter plate. The plate was washed 4 times with 0.075% phosphoric acid (100 ul per well) and then, after the addition of scintillation fluid (20 ul per well), the counts were measured by a scintillation counter.

recombinant PIM-1, sequence (P11309 whole entry): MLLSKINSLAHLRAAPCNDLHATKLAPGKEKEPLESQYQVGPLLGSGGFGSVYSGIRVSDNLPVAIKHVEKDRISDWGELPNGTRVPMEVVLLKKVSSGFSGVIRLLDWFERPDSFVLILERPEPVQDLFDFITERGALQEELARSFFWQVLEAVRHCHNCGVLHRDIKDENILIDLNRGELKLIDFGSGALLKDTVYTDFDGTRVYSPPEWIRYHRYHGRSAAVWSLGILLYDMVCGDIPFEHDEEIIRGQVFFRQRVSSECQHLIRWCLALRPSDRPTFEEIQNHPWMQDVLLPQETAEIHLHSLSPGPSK

inhibition at 2 µM [%]	Compound
32.3	O=C1Nc2ccc(C(=O)O)cc2/C1=C\c1ccc(-c2cccc(C(=O)NCCN3CCCC3)c2)o1 [Compound 6]
17.1	CCN1CCCC1CNC(=O)c1cccc(-c2coc(/C=C3/C(=O)Nc4ccc(F)cc43)c2)c1 (stereo not drawn) [Compound 90]
32.7	O=C1Nc2ccc(Cl)cc2/C1=C\c1ccc(-c2cccc(C(=O)NCCN3CCCC3)c2)o1 [Compound 43]
9.73	CN1CCCCC1CNC(=O)c1cccc(-c2ccc(/C=C3/C(=O)Nc4c(Cl)cccc43)o2)c1 (stereo not drawn) [Compound 42]
32.7	COc1cc(CNC(=O)c2cccc(-c3ccc(/C=C4/C(=O)Nc5ccc(Cl)cc54)o3)c2)ccn1 [Compound 142]
15.7	CN1CCCCC1CNC(=O)c1cc(-c2ccc(/C=C3/C(=O)Nc4ccc(F)cc43)o2)ccc1Cl (stereo not drawn) [Compound 76]
6.1	CN1CCCC(NC(=O)c2cccc(-c3coc(/C=C4/C(=O)Nc5ccc(F)cc54)c3)c2)C1 (stereo not drawn) [Compound 89]
88.3	O=C1Nc2ccccc2/C1=C\c1ccc(-c2cc(C(=O)NCCN3CCCC3)ccc2F)o1 [Compound 78]
39.3	CC1CCCN(CCCNC(=O)c2cccc(-c3ccc(/C=C4/C(=O)Nc5ccc(Cl)cc54)o3)c2)C1 (stereo not drawn) [Compound 122]
-16.9	CN1CCC(NC(=O)c2cc(-c3ccc(/C=C4/C(=O)Nc5ccccc54)o3)ccc2Cl)CC1 [Compound 27]
-15.8	CN1CC(NC(=O)c2cc(-c3ccc(/C=C4/C(=O)Nc5ccccc54)o3)ccc2Cl)C1 [Compound 25]
11.5	CCN(CC)CCNC(=O)c1cccc(-c2coc(/C=C3/C(=O)Nc4ccc(F)cc43)c2)c1 [Compound 94]
18.4	O=C1Nc2ccc(Cl)cc2/C1=C\c1ccc(-c2cccc(C(=O)NCCc3ccc(O)cc3)c2)o1 [Compound 179]
37.2	O=C1Nc2ccc(C(=O)NC3CC3)cc2/C1=C\c1ccc(-c2cccc(C(=O)NCCN3CCCC3)c2)o1 [Compound 9]
42.3	Cc1cnc(CNC(=O)c2cccc(-c3ccc(/C=C4/C(=O)Nc5ccc(F)cc54)o3)c2)cn1 [Compound 18]
19.2	O=C1Nc2ccc(Cl)cc2/C1=C\c1ccc(-c2cccc(C(=O)NCc3ccccn3)c2)o1 [Compound 117]
2.87	CN1CCC(N(C)C(=O)c2cccc(-c3coc(/C=C4/C(=O)Nc5ccc(F)cc54)c3)c2)C1 (stereo not drawn) [Compound 91]

same assay, conditions: Table 1; given for compounds with IC50 at or below 2 micromolar; 15 uM ATP; read-out: PIM-1 IC50

IC50 [nM]	Compound
< 2000	O=C1Nc2ccc(F)cc2/C1=C\c1ccc(-c2cccc(C(=O)O)c2)o1 [Compound 10]
< 1000	CCN(CC)CC(=O)Nc1cccc(-c2ccc(/C=C3/C(=O)Nc4ccccc43)o2)c1 [Compound 187]
< 1000	Cn1cncc1CNC(=O)c1cccc(-c2ccc(/C=C3/C(=O)Nc4ccc(Cl)cc43)o2)c1 [Compound 110]
< 1000	CN1CCCC1N(C)C(=O)c1ccc(-c2ccc(/C=C3/C(=O)Nc4ccccc43)o2)cc1 (stereo not drawn) [Compound 33]
< 1000	CN1CCCN(C(=O)c2ccc(-c3ccc(/C=C4/C(=O)Nc5ccc(Cl)cc54)o3)cc2)CC1 [Compound 196]
< 2000	CCN(CC)CCNC(=O)c1cccc(-c2ccc(/C=C3/C(=O)Nc4ccc(Cl)cc43)o2)c1 [Compound 120]
< 1000	CCN1CCCC1CNC(=O)c1ccc(Cl)c(-c2ccc(/C=C3/C(=O)Nc4ccc(F)cc43)o2)c1 (stereo not drawn) [Compound 100]
< 1000	O=C1Nc2ccccc2/C1=C\c1ccc(-c2cc(C(=O)NCCN3CCCC3)ccc2F)o1 [Compound 78]
< 1000	O=C1Nc2ccccc2/C1=C\c1ccc(-c2ccc3ccc(NCCN4CCCC4)nc3c2)o1 [Compound 155]
< 1000	CN1CCCC(NC(=O)c2cncc(-c3ccc(/C=C4/C(=O)Nc5ccc(Cl)cc54)o3)c2)C1 (stereo not drawn) [Compound 149]
< 1000	Cn1cncc1CNC(=O)c1ccc(-c2ccc(/C=C3/C(=O)Nc4ccccc43)o2)cc1 [Compound 36]
< 2000	O=C1Nc2ccccc2/C1=C\c1ccc(-c2ccc(CO)cc2)o1 [Compound 164]
< 1000	CN1CCC(N(C)C(=O)c2ccc(Cl)c(-c3ccc(/C=C4/C(=O)Nc5ccc(F)cc54)o3)c2)C1 (stereo not drawn) [Compound 99]
